Measured values published in patent publication US20230414657A1, “Novel compositions for neutralizing toxic effects of hydrogen peroxide in living cells or tissues” (Dzala LLC, priority 2020, published 2023).

Key:
[1] = test system: Staphylococcus aureus bacterial culture (ATCC 25923); test: Antimicrobial effect on bacterial culture, colony count; format: cell-based; details: 2.5% solution
Procedure: A composition comprising 0.5% Glycine and 0.3% Hydrogen peroxide was prepared on 0.9% sodium chloride solution. Water was sterile purified.
After incubation for 4-5 minutes, sample from each test tube was diluted 1000 times with sterile water, and […] was spread evenly on standard tryptic soy agar petri plate. Plates were incubated at 37° C. for 24 hours and bacterial colonies were counted. As a positive control (100% survival), was taken a sample, where the composition was neutralized by sodium bisulfite instantly (FIG. 10).

C. elegans [2] = test system: C. elegans
Procedure: A population of synchronized L1 larvae was added to 30-ml glass tubes containing 2.5 ml of S-complete medium (liquid culture)^2 and NA22 or induced RNAi bacteria at an OD600 of 1.9. […] Worms were incubated at 15° C. and 150 rpm in a shaking incubator for 2-6 days, refreshing the medium every 2 days.
Briefly, for the treatment during larval development worms were incubated in liquid culture under different conditions from L1 until L4, and then transferred onto control NGM plates until death. During the reproductive period (days 1-8), worms were transferred to fresh plates every other day to separate them from their progeny. […] Worms that were missing, displaying internal egg hatching, losing vulva integrity, and burrowing into NGM agar were censored. Progeny number and embryonic lethality was determined the day after transferring the adult animals to fresh plates. Statistical analyses of lifespan were calculated by Log-rank (Mantel-Cox) tests on the Kaplan-Meier curves in GraphPad Prism. For progeny number and embryonic lethality, the significance of differences between conditions was determined using an unpaired t-test in GraphPadPrism 8.0. All experiments were performed in triplicate.

[3] = 0.25% hydrogen peroxide alone in drinking water
C. elegans [4] = test: Quantification of glutathione (GSH/GSSG-Glo); format: in vivo
Procedure: Sample preparation was performed as described previously with some modifications^6. From each condition 10,000 synchronized animals were harvested and washed 3 times with sterile water. […] To thoroughly lyse the worms, 5 cycles of freezing and thawing were performed in a water bath at 37° C., followed by a 1-min sonication. The samples were then centrifuged and the supernatant tested for protein estimation and GSH quantification. Total GSH, GSSG, and GSH/GSSG ratios were quantified using the GSH/GSSG-Glo assay kit (Promega) following the instructions of the manufacturer. Briefly, each sample was tested in triplicate in 96-well culture plates with total glutathione or GSSG lysis reagent, for total glutathione or GSSG measurement, respectively. The GSH probe, luciferin-NT, was converted to luciferin, which is coupled to a firefly luciferase. The plates were then read in an […] plate reader (Perkin Elmer, United States). The GSSG value was subtracted from the total glutathione to calculate GSH levels and GSH/GSSG ratio. Four biological replicates were analyzed for each condition.

C. elegans [5] = test: Growth rate / worm size; format: in vivo; details: H2O2 alone (100 mM)
Procedure: Synchronized L1 worms were incubated at 15° C. on plates or in liquid culture and exposed to different conditions as indicated. Single worms were selected randomly from the plates or aliquots were taken from the liquid cultures and added to NGM plates for immediate visualization. 25 worms per treatment were measured at 24-48 hr intervals and all growth curves were done four times.

C. elegans [6] = test: Oxygen consumption rate (OCR), Seahorse XFe96; format: in vivo; details: H2O2 alone (100 mM)
Procedure: Oxygen consumption of worms was measured with a Seahorse XFe96 system (Seahorse Bioscience, North Billerica, MA), as previously described^4. L3 larvae of the different strains were grown on plates or in liquid culture and supplemented for 2-4 days as described for each experiment. After removing bacteria and debris, approximately 100 worms were pipetted into each well of a 96-well Seahorse XF^e assay plate and OCR was measured until it stabilized. Then, 3 subsequent measurements were made at 6.5-min intervals. Finally, the exact number of worms in each well was counted and used for normalization. A small number of abnormal readings were also filtered out at this stage. On average, 7-8 wells (technical replicates) were used for each condition. Normalized OCR values were averaged for the last 3 measurements for each strain and condition. Four biological replicates were analyzed for each condition.

C. elegans [7] = test: NADPH and NADP+ quantification by LC-MS; format: in vivo
Procedure: To measure NADP^+ and NADPH from C. elegans, 10000-15000 L1 worms were exposed to each condition in duplicates for 3 days and then washed four times with H2O. […] 25 µM solutions of each nucleotide were treated in parallel as standards. Homogenization for 15 min at 4° C. and 300 g was carried out in a TissueLyser II (Qiagen) after adding ⅓ volume of 0.5 mm zirconium beads. The resulting mixture was centrifuged at 13,000 g and the supernatant transferred to a new tube.
LC-MS/MS analysis of the samples was performed on a high-performance liquid chromatography (HPLC) system (1200 Agilent) coupled online to G2-S QTOF (Waters). For normal phase chromatography Bridge Amide 3.5 ml (2.1×100 mm) column from Waters was used. The mobile phase composed of eluent A and eluent B (40% acetonitrile, 0.1 mM ammonium acetate and 0.01% NH40H) was applied with the following gradient program: Eluent B, from 0% to 100% within 18 min; 100% from 18 min to 21 min; 0% from 21 min to 26 min. The flow rate was set at 0.3 ml/min. The spray voltage was set at 3.0 kV and the source temperature was set at 120° C. Nitrogen was used as both cone gas (50 L/h) and desolvation gas (800 L/h), and argon as the collision gas. MS^E mode was used with Bridge Amide 3.5 µl (2.1×100 mm) column in ESI negative ionization polarity for the detection of the nucleosides. Mass chromatograms and mass spectral data were acquired and processed by MassLynx software (Waters). Three and four biological replicates were analyzed for each condition of mel-32 RNAi and EV, respectively.

[8] = test system: gox-1, ghpr-1, gcst-1, mel-32 and gcs-1 genes; test: Quantitative real-time PCR of glycolate pathway genes; format: in vivo, C. elegans
Procedure: The differential expression of F41E6.5 (gox-1), C31C9.2 (ghpr-1), gcst-1, mel-32 and gcs-1 genes was measured using qRT-PCR. ˜5000 L1 N2 worms were exposed to each condition for 3 days at 15° Cas described above and then washed three times with H2O. Total RNA was isolated using the RNeasy Mini Kit (Qiagen) and equal amounts of all samples were reverse transcribed with SuperScript Ill (Invitrogen) using oligo(dT) 12-18 primers. cDNA quality was tested using standard PCR. qRT-PCR was performed using pre-designed TaqMan Gene Expression Assay (ThermoFischer Scientific) with at least three samples in triplicates. For the relative quantification of gene expression levels, the 2^−ΔΔCT method and results were normalized to the expression level of the cdc-42 gene. Expression levels were averaged over technical and biological replicates, […]

Row | SMILES | Antimicrobial effect of the neutralizer on itself [1] | Reproductive capacity (C. elegans [2]; H2O2 alone) | Lifespan (C. elegans [2]; exposed to H2O2 alone during larval stages, then control plates, control worms 18.5+/−1.19 days) [days] | Effect on weight [3] | Oxidized form of glutathione (GSSG) (C. elegans [4]; H2O2 alone (100 mM)) | Total glutathione (C. elegans [4]; H2O2 alone (100 mM), 3 days) | GSH/GSSG ratio (C. elegans [4]; H2O2 alone, control 107.5) | Reduction of GSH/GSSG ratio (C. elegans [4]; peroxide alone vs control) | Growth (C. elegans [5]) | Respiration rate (OCR) (C. elegans [6]) | Ratio of NADPH to NADP+ (C. elegans [7]; H2O2 alone (100 mM), 3 days) | Ratio of NADPH to NADP+ (C. elegans [7]; mel-32 knocked down worms, H2O2 alone) | Expression of gcst-1 ([8]; peroxide or glycolate supplementation) | Expression of gox-1, ghpr-1, mel-32 and gcs-1 ([8]; worms exposed to different peroxide concentrations, 3 days)
1 | O=S([O-])O.[Na+] [sodium bisulfite] | no antimicrobial effect | – | – | – | – | – | – | – | – | – | – | – | – | –
2 | OO [H2O2, hydrogen peroxide] | – | reduced reproductive capacity | 5.88 ± 1.47 | slight positive effect | 513 % of the control | 51 % of the control | 11.3 | 10 -fold | growth delay | decline in the respiration rate | significantly decreased | further decline | not significantly altered | significant induction
